A short description of test [1]: THP-1 cell cytotoxicity, dose response, cytotoxicity control for non-replicating M. tuberculosis project (AID 489025). The class given is functional.
Test [2] can be described thus: cells. In kind it is functional.
The target of test [3] is T1, High affinity choline transporter 1 (Homo sapiens, UniProt Q9GZV3).
T1 sequence (Q9GZV3 whole entry): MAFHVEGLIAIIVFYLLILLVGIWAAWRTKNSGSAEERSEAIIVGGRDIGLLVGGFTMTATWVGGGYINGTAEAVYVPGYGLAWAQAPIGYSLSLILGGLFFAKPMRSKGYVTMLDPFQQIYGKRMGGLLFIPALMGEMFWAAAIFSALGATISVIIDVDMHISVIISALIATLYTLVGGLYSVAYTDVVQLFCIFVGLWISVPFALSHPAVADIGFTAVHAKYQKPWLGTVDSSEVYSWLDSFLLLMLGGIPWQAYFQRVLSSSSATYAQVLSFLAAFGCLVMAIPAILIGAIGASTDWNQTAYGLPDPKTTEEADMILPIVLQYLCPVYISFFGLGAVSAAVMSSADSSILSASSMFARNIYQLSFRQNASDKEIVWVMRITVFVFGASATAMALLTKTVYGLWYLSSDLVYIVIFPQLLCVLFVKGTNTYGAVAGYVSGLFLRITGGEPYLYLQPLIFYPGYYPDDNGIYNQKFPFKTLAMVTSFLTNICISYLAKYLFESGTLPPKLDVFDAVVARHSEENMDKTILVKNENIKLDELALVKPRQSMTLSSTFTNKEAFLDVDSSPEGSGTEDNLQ
In words: CHT inhibitors, dose response, cell-based, 5-point CRC, membrane potential dye (AID 504840). In kind it is functional.

Test [4] can be described thus: inhibitors of firefly luciferase expression or activity, dose response, H4 neuroglioma cells, luminescence (AID 1990). In kind it is functional, cell-based.
Test [5] concerns Streptococcus sp. 'group A'. In words: growth inhibition of control SK(-) GAS strain, dose response, counter-screen for streptokinase expression inhibitor project, luminescence, kanamycin, BacTiterGlo, confirmation (AID 1900). In kind it is functional, organism-based.
Test [6] in a line: cells. The class given is functional, cell-based.
Test [7] can be described thus: Luminescence Cell-Based Dose Response HTS to Identify Inhibitors of 5'UTR Stem-Loop Driven Prion Protein mRNA Translation in H4 Neuroglioblastoma Cells. [Related pubchem assays: 1827 (Project Summary), 1813 (Primary HTS)]. The class given is functional.
A short description of test [8]: inhibitors of SNCA 5'UTR-driven reporter translation, confirmation, H4 neuroglioma cells, luminescence (AID 1988). The class given is functional, cell-based.
In test [9] the target is T2, Streptokinase A (Streptococcus pyogenes serotype M1, UniProt P10520).
T2 sequence (P10520 whole entry): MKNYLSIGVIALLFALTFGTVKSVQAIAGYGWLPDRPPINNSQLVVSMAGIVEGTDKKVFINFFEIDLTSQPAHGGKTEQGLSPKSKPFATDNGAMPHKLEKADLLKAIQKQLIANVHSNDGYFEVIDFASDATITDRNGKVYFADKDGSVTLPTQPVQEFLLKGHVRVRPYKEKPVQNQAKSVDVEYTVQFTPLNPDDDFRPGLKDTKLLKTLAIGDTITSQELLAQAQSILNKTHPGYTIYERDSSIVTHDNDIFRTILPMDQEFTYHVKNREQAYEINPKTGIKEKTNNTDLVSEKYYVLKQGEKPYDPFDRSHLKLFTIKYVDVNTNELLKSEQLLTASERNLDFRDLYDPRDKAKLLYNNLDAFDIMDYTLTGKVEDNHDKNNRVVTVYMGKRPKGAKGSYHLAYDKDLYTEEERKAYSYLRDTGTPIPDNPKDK
Nature of the test: S. pyogenes streptokinase expression inhibitors, potency, dose response, plasminogen activation absorbance, OD405 (AID 1914).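 Further: secreted streptokinase activity via plasminogen activation per viability signal from cell pellet.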 The class given is functional, Streptococcus pyogenes M1 GAS.

The nature of test [10]: inhibitors of intracellular T. cruzi replication, confirmation, NIH3T3 host cells, beta-gal luminescence (AID 2044).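 Further: intracellular parasites grown in NIH/3T3 mouse fibroblasts as host cells; luminescent beta-galactosidase reporter signal from transgenic T. cruzi replicating inside host cells; inhibitors lower the luminescence signal.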 The class given is functional, cell-based.
A short description of test [11]: microbe, parasite or virus in culture. Conditions: Mycobacterium tuberculosis. In kind it is functional.
Test [12] can be described thus: cells. In kind it is functional, cell-based. This is another data set of the same source.
A short description of test [13]: cytotoxicity toward NIH3T3 fibroblasts, dose response, counter-screen, cell-based, ATP luminescence, mouse fibroblasts (AID 2010).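 Further: cells exposed to compound for about 90 hours before reading.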 The class given is functional.
In test [14] the test system is Streptococcus. Nature of the test: Group A Streptococcus viability loss, dose response, counter-screen for streptokinase expression inhibitor project, luminescence, BacTiterGlo (AID 1915).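 Further: potency for reduction of bacterial viability or growth.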 In kind it is functional, organism-based.
Test [15] in a line: HepG2 cell cytotoxicity, dose response, cytotoxicity control for non-replicating M. tuberculosis project (AID 489018). The class given is functional. The note with it: Mycobacterium tuberculosis.
Test [16] in a line: Vero E6 cell cytotoxicity, dose response, cytotoxicity control for non-replicating M. tuberculosis project, secondary assay (AID 492998). The class given is functional, VeroE6. Conditions: Vero C1008.
In test [17] the target is T3, Microphthalmia-associated transcription factor (Homo sapiens, UniProt O75030).
T3 sequence (O75030 whole entry): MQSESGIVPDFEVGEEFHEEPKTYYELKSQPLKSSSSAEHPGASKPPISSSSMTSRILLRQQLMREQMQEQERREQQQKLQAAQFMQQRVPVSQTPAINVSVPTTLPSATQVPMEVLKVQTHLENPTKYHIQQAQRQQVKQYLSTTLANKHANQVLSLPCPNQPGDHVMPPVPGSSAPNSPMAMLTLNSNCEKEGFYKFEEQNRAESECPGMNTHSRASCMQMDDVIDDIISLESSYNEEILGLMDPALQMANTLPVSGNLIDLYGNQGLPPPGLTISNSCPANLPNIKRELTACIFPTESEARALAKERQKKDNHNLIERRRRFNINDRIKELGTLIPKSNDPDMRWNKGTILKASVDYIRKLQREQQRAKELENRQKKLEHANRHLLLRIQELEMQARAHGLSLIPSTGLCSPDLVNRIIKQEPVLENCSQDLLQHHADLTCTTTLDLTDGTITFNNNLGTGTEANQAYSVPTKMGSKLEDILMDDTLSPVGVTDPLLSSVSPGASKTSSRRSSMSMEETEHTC
In words: TRPM1 promoter luciferase signal decrease, dose response, MITF inhibitor project, cell-based, SK-MEL-5, cherry-picked, set 3 (AID 493073).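 Further: SK-MEL-5 melanoma cells with luciferase driven by the MITF target TRPM1 promoter.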 The class given is functional.

Test [18] is described as follows: growth suppression of PTEN-null colon cells, dose response, cell-based, HCT116 PTEN knockout (AID 1047).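 Further: HCT116 colon tumor cells with PTEN knocked out; cells exposed to compound for 60 hours before readout; potency for loss of cell viability measured by luminescence.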 In kind it is functional.
Test [19] is described as follows: growth suppression of beta-catenin-knockout colon cells, dose response, cell-based, HCT116, human colon tumor (AID 1045).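 Further: HCT116 colon tumor cells with beta catenin knocked out; cells exposed to compound for 60 hours.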 The class given is functional.
Test [20] relates to INS1. Nature of the test: beta cell apoptosis inhibitors, cytokine rescue, dose response, luminescence, retest (AID 449756).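 Further: cell death triggered by IL-1 beta plus TNF-alpha plus IFN-gamma mixture; protective hits raise ATP signal compared with cytokine alone wells.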 In kind it is functional, cell-based. The note with it: Rattus norvegicus.

The source made the active and inactive calls. Some results are limits rather than exact numbers.

`CN(C)CCCn1c(=O)n(C2CCCCC2)c(=O)c2c3c(sc21)CCCCC3`: the CC50 in test [1] is 23.8 µM (active). Further, the IC50 in test [2] was 24.9 µM (active); in test [3], 8.71 µM (active).
Regarding `O=S(=O)(c1ccc(N2CCCC2)nc1)N1CCCC1`, in test [3], the IC50 is 8.93 µM (active).
On the same count and under the same terms, the result for `Cc1ccc(NC(S)=NNC(=O)C2CC2c2ccc(C)cc2)cc1` (configuration not stated) reads 13.2 µM (active).
Regarding `Cc1nnc(-c2ccccc2)c(=O)n1/N=C/c1c(O)ccc2ccccc12`, the EC50 in test [4] is > 120 µM (not active); in test [5] it was 2.7 µM (active); in test [6] it was 25.7 µM (active); in [7], 9.49 µM (active); in test [8], > 120 µM (not active); in test [9], > 150 µM (not active). Further, the EC50 was 1.16 µM (active) in [10], > 350 µM (not active) in test [12], 1.97 µM (active) in test [13] and 36.2 µM (active) in [14]. Also, the CC50 in test [11] was 18.9 µM (active); in [1], 3.63 µM (active); in [15] it was > 20 µM (active); in test [16] it was 8.43 µM (active). Besides, the IC50 in test [2] was 35.3 µM (active).
`COc1ccc(C(=O)NC(C)c2nccs2)cc1OC1CCN(C(C)C)CC1` (configuration not stated): in [3], the IC50 was 12.9 µM (active).
For the compound `O=C(NC(=S)NCc1ccccc1)c1ccccc1`, the AC50 in test [17] was 22.1 µM (active).
With `Cn1c(SCC(=O)N/N=C/c2ccc([N+](=O)[O-])s2)nnc1-c1ccccc1`, the EC50 in test [10] was 0.634 µM (active); in [18] it was 4.9 µM (active); in test [13], 19.8 µM (active); in [19], 4.99 µM (active). For the same compound, the AC50 in [17] is 4.28 µM (active); in test [20] it was 3.5 µM (active).
Consider `CCc1cc(CC)c(/C=N/NC(N)=O)c(CC)c1/C=N/NC(N)=O`, for which the IC50 in test [3] is 11.1 µM (active).
As for `COC(=O)/C(=C/c1c[nH]c2ccccc12)[N+](=O)[O-]`, the IC50 in test [3] was 0.724 µM (active).
Still for that read-out and setting: the result for `Cc1nn(-c2ccccc2)c(C)c1C(=O)OCC(=O)NC(=O)NC1CCCC1` reads 14.5 µM (active).
For `COc1cc2nc(SCC(=O)NCc3ccco3)n(Cc3ccc(Cl)cc3)c(=O)c2cc1OC`, the AC50 in test [17] is 13.2 µM (active).

(Values after ChEMBL document CHEMBL1201862, “PubChem BioAssay data set” (2004).)
